Test results reported in patent US20240293367A1, “METHODS OF TREATING DISORDERS WITH A […]” (Cybin IRL Limited, priority 2023, published 2024).
“And” between values parts separate entries of the source, which are not always exact repeats. Equal entries are not always repeated.

Test system: participants with MDD
Experiment: MADRS total score, response, remission and relapse in MDD participants (Phase I/IIa study)
Type: in vivo, human
Conditions: for effect size, Cohen's d, versus placebo (MADRS): Day 21
Text: Cohorts 1, 4, 5, and 6 of the study was comprised of participants with MDD. Cohorts 2, 3, and the relative BA cohort of the study were comprised of normal healthy volunteers (NHV). […] MDD participants had been on a stable dose of antidepressant medication for at least one month prior to screening with an inadequate response to that antidepressant medication as judged by the Investigator, and continued to receive their prescribed antidepressant throughout the course of the study.
Cohorts 4 and 5. For Cohorts 4 and 5, 12 participants each (24 participants total) were randomized in a 3:1 ratio to receive 12 mg of psilocin-d10 or matched placebo in a single dosing session on Day 1. Following a 21-day interval, all participants received a dose of 12 mg psilocin-d10 on Day 22 (second dose for participants originally randomized to psilocin-d10, first dose for participants randomized to placebo), and were followed to Day 42.
Cohort 6. For Cohort 6, 12 participants were randomized in a 3:1 ratio to receive 16 mg of psilocin-d10 or matched placebo in a single dosing session on Day 1. Following a 21-day interval, all participants received a dose of 16 mg psilocin-d10 on Day 22 (second dose for participants originally randomized to psilocin-d10, first dose for participants randomized to placebo), and were followed to Day 42. Given the availability of data and considering that the secondary endpoint was a change in baseline to Day 21 in MADRS, efficacy data presented herein considers the data cut off of Day 21 postdose. One participant had to be withdrawn from the study due to pregnancy.
The primary efficacy endpoint defined in the statistical analysis plan (SAP) is the change from baseline to Day 21 of the total Montgomery-Åsberg Depression Rating Scale (MADRS) score compared to placebo, therefore efficacy data presented herein considers the data cut off of Day 21 postdose. Mean total score and change from baseline on Montgomery-Åsberg Depression Rating Scale (MADRS) on days 1, 10, 17, 22, 31, 38, and 42 are presented as secondary efficacy endpoints.
The secondary objective of the study was to evaluate the efficacy of psilocin-d10 in treating symptoms of MDD as measured by the change from baseline to Day 21 of the MADRS total score in the Intent-to-Treat population, with data analyzed according to the treatment group each participant was randomized to receive. Data from participants in Cohorts 4, 5, and 6 randomized to placebo was pooled for analysis purposes (N=9). Data from participants in Cohorts 4, 5, and 6 randomized to 12 mg or 16 mg psilocin-d10 (N=27) was also pooled for analysis.
Data from the study was also analyzed according to dosage level of psilocin-d10. Data from participants in Cohorts 4, 5, and 6 randomized to placebo was pooled for analysis purposes (N=9). Data from participants in Cohorts 4 and 5 (treated with 12 mg psilocin-d10) was also pooled for analysis (N=18).
The rates of remission, response, and relapse were also evaluated within the study. […] Additionally, 20.8% (5 out of 24) of participants in the psilocin-do group (12 mg and 16 mg combined) were in remission (remitters) (defined as a MADRS score of ≤10) compared to 0% for placebo at Day 21. The same 5 participants who were in remission were also classified as responders. None of the participants relapsed at Day 21 compared to baseline.
The MADRS is a 10-item scale with ratings based on a clinical interview which moves from broadly phrased questions about symptoms to more detailed ones allowing a precise rating of severity. A rating scale from 0 to 6 is employed and the rater must decide whether the rating lies on defined scale steps (0, 2, 4, 6) or between them (1, 3, 5). The MADRS can be used for any time interval between ratings, be it weekly or otherwise, and the time interval should be recorded. […]

[1] = Day 42, Cohort 4, two 12 mg doses
[2] = Day 42, Cohort 5, two 12 mg doses
[3] = Day 42, Cohort 6, two 16 mg doses
[4] = Day 42, Cohorts 4 and 5, two 12 mg doses
[5] = Day 42, Placebo/active group, one dose Day 22
[6] = Day 42, Placebo/active group: one psilocin-d10 dose Day 22
[7] = Day 42, two 12 mg doses (11 out of 14)
[8] = Day 42, two 12 mg doses, Cohorts 4 and 5
[9] = Day 42, two 16 mg doses, Cohort 6
[10] = Day 42, two doses (Day 1, Day 22), 12 and 16 mg pooled
[11] = Day 42, two doses, 12 and 16 mg pooled
[12] = Day 42, two doses, pooled 12 mg and 16 mg

[2H]C([2H])([2H])N(C([2H])([2H])[2H])C([2H])([2H])C([2H])([2H])c1c[nH]c2cccc(O)c12 [psilocin-d10, 3-(2-(bis(methyl-d3)amino)ethyl-1,1,2,2-d4)-1H-indol-4-ol]
Relapse - Yes [1]: 0 (0.0) n (%)
Remission (MADRS ≤10) - Yes [1]: 5 (71.4) n (%)
Remission - No [1]: 2 (28.6) n (%)
Response (≥50% reduction from baseline MADRS) - Yes [1]: 5 (71.4) n (%)
Response - No [1]: 2 (28.6) n (%)
Relapse - No [2]: 8 (100.0) n (%)
Relapse - Yes [2]: 0 (0.0) n (%)
Remission (MADRS ≤10) - Yes [2]: 6 (85.7) n (%)
Remission - No [2]: 1 (14.3) n (%)
Response (≥50% reduction from baseline MADRS) - Yes [2]: 6 (85.7) n (%)
Response - No [2]: 1 (14.3) n (%)
Relapse - No [3]: 8 (100.0) n (%)
Relapse - Yes [3]: 0 (0.0) n (%)
Remission (MADRS ≤10) - Yes [3]: 4 (50.0) n (%)
Remission - No [3]: 4 (50.0) n (%)
Response (≥50% reduction from baseline MADRS) - Yes [3]: 6 (75.0) n (%)
Response - No [3]: 2 (25.0) n (%)
Relapse - No [4]: 15 (100.0) n (%)
Relapse - Yes [4]: 0 (0.0) n (%)
Remission (MADRS ≤10) - Yes [4]: 11 (78.6) n (%)
Remission - No [4]: 3 (21.4) n (%)
Response (≥50% reduction from baseline MADRS) - Yes [4]: 11 (78.6) n (%)
Response - No [4]: 3 (21.4) n (%)
Relapse - No [5]: 9 (100.0) n (%)
Relapse - Yes [5]: 0 (0.0) n (%)
Remission - No [5]: 5 (55.6) n (%)
Response (≥50% reduction from baseline MADRS) - Yes [5]: 4 (44.4) n (%)
Response - No [5]: 5 (55.6) n (%)
Remission (MADRS ≤10) - Yes (Day 42, Placebo/active group, one dose Day 22 (pooled 12 mg and 16 mg)): 4 (44.4) n (%)
MADRS total score, Change from Baseline, Median [6]: −14.0
MADRS total score, Observed, Median [6]: 16.0
MADRS total score, Change from Baseline, Mean (Day 42, Placebo/active group: one psilocin-d10 dose Day 22 (12 and 16 mg pooled)): −16.4
MADRS total score, Observed, Mean (Day 42, Placebo/active group: placebo Day 1, one psilocin-d10 dose Day 22 (12 and 16 mg pooled)): 15.1
participants in remission (Day 42, after second dose, 12 mg and 16 mg combined (15 out of 22)): 68.2%
participants with response (Day 42, after second dose, 12 mg and 16 mg combined (17 out of 22)): 77.3% and 77%
participants with response (Day 42, placebo/psilocin-d10 group, first dose Day 22 (4 out of 9)): 44.4%
participants in remission [7]: 78.6%
participants with response [7]: 78.6%
MADRS total score, Change from Baseline, Mean [8]: −22.8
MADRS total score, Change from Baseline, Median [8]: −25.5
MADRS total score, Observed, Mean [8]: 9.4
MADRS total score, Observed, Median [8]: 3.5
participants in remission (Day 42, two 16 mg doses (4 out of 8)): 50.0%
participants with response (Day 42, two 16 mg doses (6 out of 8)): 75%
MADRS total score, Change from Baseline, Mean [9]: −17.6
MADRS total score, Change from Baseline, Median [9]: −20.5
MADRS total score, Observed, Mean [9]: 13.0
MADRS total score, Observed, Median [9]: 11.5
MADRS total score, Change from Baseline, Mean [10]: −20.9
MADRS total score, Observed, Mean [10]: 10.7
MADRS total score, Change from Baseline, Median [11]: −24.5
MADRS total score, Observed, Median [11]: 7.0
Relapse - No [12]: 22 (100.0) n (%)
Relapse - Yes [12]: 0 (0.0) n (%)
Remission (MADRS ≤10) - Yes [12]: 15 (68.2) n (%)
Remission - No [12]: 7 (31.8) n (%)
Response (≥50% reduction from baseline MADRS) - Yes [12]: 17 (77.3) n (%)
Response - No [12]: 5 (22.7) n (%)
MADRS, Difference in LS Means, 12 mg (two doses) compared to Placebo/active (one dose) (Day 42, 95% CI (−14.2, 7.5), P 0.5299): −3.34
MADRS, Difference in LS Means, 12 mg compared to Cohort 6 (16 mg) (Day 42, 95% CI (−15.3, 22.5), P 0.6999): 3.58
MADRS, difference in LS means, 16 mg (two doses) versus Placebo/active (one dose) (Day 42, 95% CI −22.8, 7.2, p=0.2931): −7.79
participants meeting criteria for response (Day 126, two 12 mg doses (Day 1, Day 22), N=15): 73%
participants meeting criteria for remission (Day 126, two 12 mg doses, N=15): 60%
participants meeting criteria for response (Day 126, two 16 mg doses (Day 1, Day 22), N=8): 75%
participants meeting criteria for remission (Day 126, two 16 mg doses, N=8): 75%
effect size, Cohen's d, versus placebo (MADRS) (single 12 mg dose, 95% CI: 0.92, 3.37): 2.15
effect size, Cohen's d, versus placebo (MADRS) (single 16 mg dose): 2.54
